Legend:
mTOR = target: T1, mTOR (Homo sapiens, UniProt P42345); assay: Biochemical assay for m-TOR by TR-FRET; conditions: 8 μM ATP, 400 nM GFP-4EBP1, 0.5 nM mTOR
T1 construct: purchased Invitrogen Corporation (Carlsbad/CA, USA) PV4753
Summary of the method: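 mTOR (0.5 nM) was incubated at rt with ATP (8 μM final) and GFP-4EBP1 (400 nM final) in 50 mM HEPES pH 7.5, 10 mM MnCl2, 50 mM NaCl, 1 mM EGTA, 1 mM DTT. EDTA stop with Tb3+-anti-p4EBP1 [pThr46] antibody (0.5 nM); TR-FRET read 15 min later.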

PI3K beta = target: T2, PI3K beta (Homo sapiens, UniProt P42338); assay: PI3K beta kinase assay (Kinase-Glo luminescence); type: biochemical
T2 construct: for the full-length p110-b subunit are generated and fused by overlapping PCR; p85(iSH2) fusion partner (see partner chain) (N); His tag (C); made in house; host or cells: baculovirus; Tn5 (Trichoplusia ni) or TiniPro insect cells
T2 sequence (P42338 with tags, fused parts or gaps limits assumed): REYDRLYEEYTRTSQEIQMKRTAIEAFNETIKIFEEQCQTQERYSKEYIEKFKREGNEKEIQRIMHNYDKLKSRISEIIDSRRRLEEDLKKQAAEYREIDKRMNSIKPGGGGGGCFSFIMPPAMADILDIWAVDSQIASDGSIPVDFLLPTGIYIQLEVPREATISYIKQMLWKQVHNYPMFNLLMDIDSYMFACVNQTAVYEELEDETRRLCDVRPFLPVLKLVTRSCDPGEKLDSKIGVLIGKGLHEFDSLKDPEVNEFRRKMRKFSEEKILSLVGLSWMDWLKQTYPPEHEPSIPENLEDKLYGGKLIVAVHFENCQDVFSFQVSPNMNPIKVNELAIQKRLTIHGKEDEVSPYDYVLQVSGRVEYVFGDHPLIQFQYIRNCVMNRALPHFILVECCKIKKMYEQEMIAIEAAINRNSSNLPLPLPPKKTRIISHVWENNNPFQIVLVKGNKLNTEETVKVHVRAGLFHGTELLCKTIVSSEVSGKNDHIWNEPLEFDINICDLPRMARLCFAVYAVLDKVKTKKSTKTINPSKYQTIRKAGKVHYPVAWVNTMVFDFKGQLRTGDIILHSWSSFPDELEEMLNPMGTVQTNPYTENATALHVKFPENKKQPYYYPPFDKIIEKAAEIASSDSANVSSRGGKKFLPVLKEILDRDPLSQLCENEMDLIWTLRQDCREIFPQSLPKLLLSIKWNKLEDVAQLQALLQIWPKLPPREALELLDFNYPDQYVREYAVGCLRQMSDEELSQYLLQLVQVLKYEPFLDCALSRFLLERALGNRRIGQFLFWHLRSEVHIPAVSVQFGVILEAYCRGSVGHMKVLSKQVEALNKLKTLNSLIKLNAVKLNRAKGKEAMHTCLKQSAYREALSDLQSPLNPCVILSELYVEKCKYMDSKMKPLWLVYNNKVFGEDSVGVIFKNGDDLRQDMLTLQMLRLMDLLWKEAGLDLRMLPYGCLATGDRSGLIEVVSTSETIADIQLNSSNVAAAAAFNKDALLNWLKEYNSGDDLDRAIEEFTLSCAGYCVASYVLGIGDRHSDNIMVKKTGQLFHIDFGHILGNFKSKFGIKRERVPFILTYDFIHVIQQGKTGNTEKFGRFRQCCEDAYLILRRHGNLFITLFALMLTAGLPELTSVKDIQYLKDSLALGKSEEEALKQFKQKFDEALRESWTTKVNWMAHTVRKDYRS
Summary of the method: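 p110β full-length/p85 iSH2 construct (BV-949), 25 nM, with 1 μM ATP and 10 μg/mL phosphatidylinositol in 10 mM Tris pH 7.5, 3 mM MgCl2, 50 mM NaCl, 0.05% CHAPS, 1 mM DTT. 60 min at room temperature; ATP remaining read by Kinase-Glo luminescence. IC50 from 8-point four-parameter logistic fit.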

PI3K alpha = target: T3, PI3K alpha (Homo sapiens, UniProt P42336); assay: PI3K alpha kinase assay (Kinase-Glo luminescence); type: biochemical
T3 construct: p85(iSH2) fusion partner (see partner chain) (N); His tag (C); made in house; host or cells: baculovirus; Tn5 (Trichoplusia ni) or TiniPro insect cells
T3 sequence (P42336 with tags, fused parts or gaps limits assumed): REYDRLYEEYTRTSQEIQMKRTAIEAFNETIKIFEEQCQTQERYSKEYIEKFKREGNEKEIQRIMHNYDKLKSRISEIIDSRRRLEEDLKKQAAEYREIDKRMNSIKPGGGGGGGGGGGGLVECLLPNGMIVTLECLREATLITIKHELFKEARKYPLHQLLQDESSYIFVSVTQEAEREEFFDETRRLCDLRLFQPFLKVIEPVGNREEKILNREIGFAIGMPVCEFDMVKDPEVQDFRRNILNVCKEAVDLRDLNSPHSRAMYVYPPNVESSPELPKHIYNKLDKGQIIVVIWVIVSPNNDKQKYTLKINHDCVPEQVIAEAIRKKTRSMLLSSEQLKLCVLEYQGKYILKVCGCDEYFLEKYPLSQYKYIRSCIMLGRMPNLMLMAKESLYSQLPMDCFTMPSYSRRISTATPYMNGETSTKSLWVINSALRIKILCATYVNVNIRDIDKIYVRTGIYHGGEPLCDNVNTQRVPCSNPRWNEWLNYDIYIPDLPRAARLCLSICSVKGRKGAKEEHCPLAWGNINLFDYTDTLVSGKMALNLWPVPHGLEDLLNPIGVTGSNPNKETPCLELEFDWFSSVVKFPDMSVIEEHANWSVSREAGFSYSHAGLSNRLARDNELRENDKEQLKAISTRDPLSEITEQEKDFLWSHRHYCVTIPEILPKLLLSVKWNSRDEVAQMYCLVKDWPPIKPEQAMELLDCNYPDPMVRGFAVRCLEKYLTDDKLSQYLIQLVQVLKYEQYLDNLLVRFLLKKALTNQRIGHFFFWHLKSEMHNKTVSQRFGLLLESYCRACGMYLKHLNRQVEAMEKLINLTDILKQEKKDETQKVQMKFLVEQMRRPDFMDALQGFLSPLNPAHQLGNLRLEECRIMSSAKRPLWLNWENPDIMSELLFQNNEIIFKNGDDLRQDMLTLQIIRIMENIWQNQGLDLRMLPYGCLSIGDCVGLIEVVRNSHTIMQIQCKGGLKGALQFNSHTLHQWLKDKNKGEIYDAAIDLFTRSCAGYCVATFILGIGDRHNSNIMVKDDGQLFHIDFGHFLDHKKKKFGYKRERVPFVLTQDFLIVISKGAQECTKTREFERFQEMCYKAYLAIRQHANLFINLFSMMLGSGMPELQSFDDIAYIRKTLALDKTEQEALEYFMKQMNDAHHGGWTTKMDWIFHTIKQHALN
Summary of the method: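 IC50 is taken from a four-parameter logistic fit of 8-point dilutions, with Kinase-Glo luminescence reporting residual ATP. Reactions ran 60 min at room temperature in TRIS pH 7.5 buffer with MgCl2, NaCl, CHAPS and DTT. Final levels were 10 nM enzyme, 1 μM ATP and 10 μg/mL PI.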

T1 sequence (P42345 1360-2549 limits assumed): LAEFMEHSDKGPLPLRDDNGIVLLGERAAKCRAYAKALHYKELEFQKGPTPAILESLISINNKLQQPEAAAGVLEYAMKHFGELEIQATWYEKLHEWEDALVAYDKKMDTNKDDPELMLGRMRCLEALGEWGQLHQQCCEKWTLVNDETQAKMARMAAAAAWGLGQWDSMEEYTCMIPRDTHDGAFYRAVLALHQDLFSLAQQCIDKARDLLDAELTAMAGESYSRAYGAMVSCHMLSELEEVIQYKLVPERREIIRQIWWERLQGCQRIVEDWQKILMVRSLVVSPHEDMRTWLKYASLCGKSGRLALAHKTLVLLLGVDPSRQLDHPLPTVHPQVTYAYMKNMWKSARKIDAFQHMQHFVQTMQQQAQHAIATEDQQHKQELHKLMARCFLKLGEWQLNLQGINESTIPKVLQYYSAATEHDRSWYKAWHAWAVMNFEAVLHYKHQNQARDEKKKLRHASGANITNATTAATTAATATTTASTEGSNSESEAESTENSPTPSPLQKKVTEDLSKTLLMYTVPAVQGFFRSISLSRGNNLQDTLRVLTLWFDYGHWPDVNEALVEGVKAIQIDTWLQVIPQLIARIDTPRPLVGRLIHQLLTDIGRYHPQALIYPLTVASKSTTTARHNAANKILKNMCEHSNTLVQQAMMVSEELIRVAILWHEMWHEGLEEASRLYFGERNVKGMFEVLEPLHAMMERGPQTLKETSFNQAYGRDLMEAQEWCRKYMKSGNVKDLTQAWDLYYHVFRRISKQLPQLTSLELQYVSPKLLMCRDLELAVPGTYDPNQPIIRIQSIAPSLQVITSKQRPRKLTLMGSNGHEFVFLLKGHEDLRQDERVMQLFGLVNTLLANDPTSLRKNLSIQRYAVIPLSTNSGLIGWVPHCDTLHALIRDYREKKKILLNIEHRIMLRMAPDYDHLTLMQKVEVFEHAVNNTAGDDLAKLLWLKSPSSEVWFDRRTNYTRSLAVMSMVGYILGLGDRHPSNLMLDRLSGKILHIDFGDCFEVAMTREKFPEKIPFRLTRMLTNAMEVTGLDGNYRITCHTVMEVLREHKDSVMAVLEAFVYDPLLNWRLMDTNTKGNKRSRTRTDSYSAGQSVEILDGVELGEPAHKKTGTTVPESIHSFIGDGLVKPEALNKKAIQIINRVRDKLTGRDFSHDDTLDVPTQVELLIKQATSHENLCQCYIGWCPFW

Compound	IC50 (mTOR) [nM]	IC50 (PI3K beta) [nM]	IC50 (PI3K alpha) [nM]
Cc1nn(C)cc1-n1c(=O)n(C)c2cnc3ccc(-c4cnc5ccn(C)c5c4)cc3c21 [Example 129, 1-(1,3-Dimethyl-1H-pyrazol-4-yl)-3-methyl-8-(1-methyl-1H-pyrrolo[3,2-b]pyridin-6-yl)-1,3-dihydro-imidazo[4,5-c]quinolin-2-one]	5	34	12
CNc1ncc(-c2ccc3ncc4c(c3c2)n(-c2cn(C(C)C)nc2C)c(=O)n4C)cc1F [Example 141.3, 8-(5-Fluoro-6-methylamino-pyridin-3-yl)-1-(1-isopropyl-3-methyl-1H-pyrazol-4-yl)-3-methyl-1,3-dihydro-imidazo[4,5-c]quinolin-2-one]	27	407	21
Cc1nn(C(C)C)cc1-n1c(=O)n(C)c2cnc3ccc(-c4cnc(N)c(F)c4)cc3c21 [Example 142.3, 8-(6-Amino-5-fluoro-pyridin-3-yl)-1-(1-isopropyl-3-methyl-1H-pyrazol-4-yl)-3-methyl-1,3-dihydro-imidazo[4,5-c]quinolin-2-one]	17	385	25
CNc1ncc(-c2ccc3ncc4c(c3c2)n(-c2c(C)nn(C)c2C)c(=O)n4C)cc1C(F)(F)F [Example 144.1, 3-Methyl-8-(6-methylamino-5-trifluoromethyl-pyridin-3-yl)-1-(1,3,5-trimethyl-1H-pyrazol-4-yl)-1,3-dihydro-imidazo[4,5-c]quinolin-2-one]	274	80	36
Cc1nn(C)c(C)c1-n1c(=O)n(C)c2cnc3ccc(-c4cnc(N)c(Cl)c4)cc3c21 [Example 148.1, 8-(6-Amino-5-chloro-pyridin-3-yl)-3-methyl-1-(1,3,5-trimethyl-1H-pyrazol-4-yl)-1,3-dihydro-imidazo[4,5-c]quinolin-2-one]	95	51	26
Cc1nn(C)cc1-n1c(=O)n(C)c2cnc3ccc(-c4cnc(N)c(Cl)c4)cc3c21 [Example 148.2, 8-(6-Amino-5-chloro-pyridin-3-yl)-1-(1,3-dimethyl-1H-pyrazol-4-yl)-3-methyl-1,3-dihydro-imidazo[4,5-c]quinolin-2-one]	9	35	18
CCNc1cc(-c2ccc3ncc4c(c3c2)n(-c2cn(C)nc2C)c(=O)n4C)cnc1CO [Example 155.1, 1-(1,3-Dimethyl-1H-pyrazol-4-yl)-8-(5-ethylamino-6-hydroxymethyl-pyridin-3-yl)-3-methyl-1,3-dihydro-imidazo[4,5-c]quinolin-2-one]	3	19	13
CCNc1cc(-c2ccc3ncc4c(c3c2)n(-c2cn(CC)nc2C)c(=O)n4C)cnc1CO [Example 155.2, 8-(5-Ethylamino-6-hydroxymethyl-pyridin-3-yl)-1-(1-ethyl-3-methyl-1H-pyrazol-4-yl)-3-methyl-1,3-dihydro-imidazo[4,5-c]quinolin-2-one]	12	17	14
CNc1cc(-c2ccc3ncc4c(c3c2)n(-c2cn(C(C)C)nc2C)c(=O)n4C)cnc1CO [Example 158.2, 8-(6-Hydroxymethyl-5-methylamino-pyridin-3-yl)-1-(1-isopropyl-3-methyl-1H-pyrazol-4-yl)-3-methyl-1,3-dihydro-imidazo[4,5-c]quinolin-2-one]	4	184	44
CNc1cc(-c2ccc3ncc4c(c3c2)n(-c2cn(C)nc2Cl)c(=O)n4C)cnc1CO [Example 158.3, 1-(3-Chloro-1-methyl-1H-pyrazol-4-yl)-8-(6-hydroxymethyl-5-methylamino-pyridin-3-yl)-3-methyl-1,3-dihydro-imidazo[4,5-c]quinolin-2-one]	12	8	7
CNc1cc(-c2ccc3ncc4c(c3c2)n(-c2cn(C)nc2C)c(=O)n4C)cnc1C [Example 163, 1-(1,3-Dimethyl-1H-pyrazol-4-yl)-3-methyl-8-(6-methyl-5-methylamino-pyridin-3-yl)-1,3-dihydro-imidazo[4,5-c]quinolin-2-one]	< 3	10	6
CCN(C)c1cc(-c2ccc3ncc4c(c3c2)n(-c2cn(C)nc2C)c(=O)n4C)cnc1C [Example 165, 1-(1,3-Dimethyl-1H-pyrazol-4-yl)-8-[5-(ethyl-methyl-amino)-6-methyl-pyridin-3-yl]-3-methyl-1,3-dihydro-imidazo[4,5-c]quinolin-2-one]	< 3	25	7
Cc1nn(C(C)C)cc1-n1c(=O)n(C)c2cnc3ccc(-c4cnc(N)c(CO)c4)cc3c21 [Example 169.1, 8-(6-Amino-5-hydroxymethyl-pyridin-3-yl)-1-(1-isopropyl-3-methyl-1H-pyrazol-4-yl)-3-methyl-1,3-dihydro-imidazo[4,5-c]quinolin-2-one]	< 3	87	24
Cc1nn(C)c(C)c1-n1c(=O)n(C)c2cnc3ccc(-c4cnc(N)c(CO)c4)cc3c21 [Example 169.2, 8-(6-Amino-5-hydroxymethyl-pyridin-3-yl)-3-methyl-1-(1,3,5-trimethyl-1H-pyrazol-4-yl)-1,3-dihydro-imidazo[4,5-c]quinolin-2-one]	149	165	34
Cc1nn(C)cc1-n1c(=O)n(C)c2cnc3ccc(-c4cncc(NC5CCC5)c4)cc3c21 [Example 172, 8-(5-Cyclobutylamino-pyridin-3-yl)-1-(1,3-dimethyl-1H-pyrazol-4-yl)-3-methyl-1,3-dihydro-imidazo[4,5-c]quinolin-2-one]	< 3	146	39
Cc1nn(C)cc1-n1c(=O)n(C)c2cnc3ccc(-c4cncc(N(C)C(C)C)c4)cc3c21 [Example 173, 1-(1,3-Dimethyl-1H-pyrazol-4-yl)-8-[5-(isopropyl-methyl-amino)-pyridin-3-yl]-3-methyl-1,3-dihydro-imidazo[4,5-c]quinolin-2-one]	4	148	23
Cc1nn(C)cc1-n1c(=O)n(C)c2cnc3ccc(-c4cncc(N5CCOCC5)c4)cc3c21 [Example 175.1, 1-(1,3-Dimethyl-1H-pyrazol-4-yl)-3-methyl-8-(5-morpholin-4-yl-pyridin-3-yl)-1,3-dihydro-imidazo[4,5-c]quinolin-2-one]	6	180	66
Cc1nn(C)cc1-n1c(=O)n(C)c2cnc3ccc(-c4cncc(N(C)C)c4)cc3c21 [Example 178, 8-(5-Dimethylamino-pyridin-3-yl)-1-(1,3-dimethyl-1H-pyrazol-4-yl)-3-methyl-1,3-dihydro-imidazo[4,5-c]quinolin-2-one]	15	274	82
Cc1nn(C)cc1-n1c(=O)n(C)c2cnc3ccc(-c4cncc(N5CCC5)c4)cc3c21 [Example 179, 8-(5-Azetidin-1-yl-pyridin-3-yl)-1-(1,3-dimethyl-1H-pyrazol-4-yl)-3-methyl-1,3-dihydro-imidazo[4,5-c]quinolin-2-one]	13	130	39
CNc1cncc(-c2ccc3ncc4c(c3c2)n(-c2cn(C(C)C)nc2C)c(=O)n4C)c1 [Example 180.2, 1-(1-Isopropyl-3-methyl-1H-pyrazol-4-yl)-3-methyl-8-(5-methylamino-pyridin-3-yl)-1,3-dihydro-imidazo[4,5-c]quinolin-2-one]	< 3	42	22
CCOc1cc(-c2ccc3ncc4c(c3c2)n(-c2cn(C)nc2C)c(=O)n4C)cnc1CC [Example 187, 1-(1,3-Dimethyl-1H-pyrazol-4-yl)-8-(5-ethoxy-6-ethyl-pyridin-3-yl)-3-methyl-1,3-dihydro-imidazo[4,5-c]quinolin-2-one]	8	28	15
CCc1ncc(-c2ccc3ncc4c(c3c2)n(-c2cn(C)nc2C)c(=O)n4C)cc1O [Example 188, 1-(1,3-Dimethyl-1H-pyrazol-4-yl)-8-(6-ethyl-5-hydroxy-pyridin-3-yl)-3-methyl-1,3-dihydro-imidazo[4,5-c]quinolin-2-one]	< 3	30	9
CCn1cc(-n2c(=O)n(C)c3cnc4ccc(-c5cnc(COC)c(OC(C)C)c5)cc4c32)c(C)n1 [Example 191.2, 1-(1-Ethyl-3-methyl-1H-pyrazol-4-yl)-8-(5-isopropoxy-6-methoxymethyl-pyridin-3-yl)-3-methyl-1,3-dihydro-imidazo[4,5-c]quinolin-2-one]	34	178	13
